According to patent US8309581B2, “Benzimidazole derivatives” (Hoffmann-La Roche Inc., priority 2009, dated 2012):

target: T1, FXR ligand binding domain (Homo sapiens, UniProt Q96RI1); assay: Radioligand Binding Assay (scintillation proximity radioligand displacement); details: GST-FXR LBD fusion protein on SPA beads, test compound 6×10^−9 M to 2.5×10^−5 M
T1 construct: made in house; host or cells: E. coli BL21 (pLysS)
T1 sequence (Q96RI1 193-472 isoform Q96RI1-2): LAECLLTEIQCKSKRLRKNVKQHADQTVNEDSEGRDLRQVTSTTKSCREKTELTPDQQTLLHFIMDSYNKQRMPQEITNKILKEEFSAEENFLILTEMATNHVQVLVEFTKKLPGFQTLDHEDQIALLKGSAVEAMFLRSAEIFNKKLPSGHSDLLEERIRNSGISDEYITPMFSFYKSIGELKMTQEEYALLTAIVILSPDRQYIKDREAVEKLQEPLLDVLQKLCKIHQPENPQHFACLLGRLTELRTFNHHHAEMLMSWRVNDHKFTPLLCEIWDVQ
Procedure: The following tests were carried out in order to determine the activity of the compounds of formula (I). Background information on the binding assay can be found in: Nichols J S et al. “Development of a scintillation proximity assay for peroxisome proliferator-activated receptor gamma ligand binding domain”, (1998) Anal. Biochem. 257: 112-119.
Bacterial and mammalian expression vectors were constructed to produce glutathione-s-transferase (GST) and Gal4 DNA binding domain (GAL) proteins fused to the ligand binding domain (LBD) of human FXR (aa 193-473). To accomplish this, the portions of the sequences encoding the FXR LBD were amplified by polymerase chain reaction (PCR) from a full-length clone by PCR and then subcloned into the plasmid vectors. The final clone was verified by DNA sequence analysis.
The induction, expression, and subsequent purification of GST-LBD fusion protein was performed in E. coli strain BL21 (pLysS) cells by standard methods (Current Protocols in Molecular Biology, Wiley Press, ed. Ausubel et al.).
Radioligand Binding Assay
Binding of test substances to the FXR ligand binding domain was assessed in a radioligand displacement assay. The assay was performed in a buffer consisting of 50 mM Hepes, pH 7.4, 10 mM NaCl, 5 mM MgCl2, 0.01% CHAPS. For each reaction well in a 96-well plate, 40 nM of GST-FXR LBD fusion protein was bound to […] glutathione ytrium silicate SPA beads (PharmaciaAmersham) in a final volume of […] by shaking. A radioligand (e.g., 20 nM of 2,N-dicyclohexyl-2-[2-(2,4 dimethoxy-phenyl)-benzoimidazol-1-yl]-acetamide) and test compounds were added, and scintillation proximity counting was performed. All binding assays were performed in 96-well plates and the amount of bound ligand was measured on a Packard TopCount using OptiPlates (Packard). Dose response curves were performed within a range of test compound concentrations from 6×10^−9 M to 2.5×10^−5 M and IC50 values were calculated.

Row | SMILES | IC50
1 | O=C(O)COc1ccc(Cn2c(-c3ccc(Cl)cc3OCC3CCCC3)nc3cc(F)c(F)cc32)cc1 [Example 64, {4-[2-(4-Chloro-2-cyclopentylmethoxy-phenyl)-5,6-difluoro-benzoimidazol-1-ylmethyl]-phenoxy}-acetic acid] | 200 nM
2 | O=C(O)c1ccc(COc2ncccc2-c2nc3cc(F)c(F)cc3n2Cc2cccc(Cl)c2)cc1 [Example 14, 4-{3-[1-(3-Chloro-benzyl)-5,6-difluoro-1H-benzoimidazol-2-yl]-pyridin-2-yloxymethyl}-benzoic acid] | 5200 nM
3 | O=C(O)CCc1ccc(Cn2c(-c3ccc(Cl)cc3OCC3CCCC3)nc3cc(F)c(F)cc32)cc1 [Example 59, 3-{4-[2-(4-Chloro-2-cyclopentylmethoxy-phenyl)-5,6-difluoro-benzoimidazol-1-ylmethyl]-phenyl}-propionic acid] | 300 nM
4 | O=C(O)c1ccc(CCOc2cc(Cl)ccc2-c2nc3cc(F)c(F)cc3n2CC2CCCCC2)cc1 [Example 27, 4-{2-[5-Chloro-2-(1-cyclohexylmethyl-5,6-difluoro-1H-benzoimidazol-2-yl)-phenoxy]-ethyl}-benzoic acid] | 500 nM
5 | Fc1cc2nc(-c3cccnc3OCC3CCCC3)n(CC3CCCCC3)c2cc1F [Example 1, 1-Cyclohexylmethyl-2-(2-cyclopentylmethoxy-pyridin-3-yl)-5,6-difluoro-1H-benzoimidazole] | 200 nM
6 | O=C(O)COc1ccc(COc2ncccc2-c2nc3cc(F)c(F)cc3n2Cc2ccccc2)cc1 [Example 10, {4-[3-(1-Benzyl-5,6-difluoro-1H-benzoimidazol-2-yl)-pyridin-2-yloxymethyl]-phenoxy}-acetic acid] | 12800 nM
7 | c1ccc(-c2nc3ccccc3n2CCC2CCCCC2)c(CCc2ccc(-c3nnn[nH]3)cc2)c1 [Example 83, 1-(2-Cyclohexyl-ethyl)-2-(2-{2-[4-(1H-tetrazol-5-yl)-phenyl]-ethyl}-phenyl)-1H-benzoimidazole] | 10 nM
8 | O=C(O)CCc1ccc(Cn2c(-c3ccc(Cl)cc3OCC3CC3)nc3cc(F)c(F)cc32)cc1 [Example 60, 3-{4-[2-(4-Chloro-2-cyclopropylmethoxy-phenyl)-5,6-difluoro-benzoimidazol-1-ylmethyl]-phenyl}-propionic acid] | 1300 nM
9 | O=C(O)COc1ccc(COc2ncccc2-c2nc3cc(F)c(F)cc3n2Cc2cccc(Cl)c2)cc1 [Example 15, (4-{3-[1-(3-Chloro-benzyl)-5,6-difluoro-1H-benzoimidazol-2-yl]-pyridin-2-yloxymethyl}-phenoxy)-acetic acid] | 2600 nM
10 | O=C(O)c1ccc(COc2cc(Cl)ccc2-c2nc3cc(F)c(F)cc3n2Cc2ccccc2)cc1 [Example 51, 4-[2-(1-Benzyl-5,6-difluoro-1H-benzoimidazol-2-yl)-5-chloro-phenoxymethyl]-benzoic acid] | 500 nM
11 | Fc1cc2nc(-c3ccc(Cl)cc3OCC3CCCC3)n(Cc3cccc(Cl)c3)c2cc1F [Example 54, 1-(3-Chloro-benzyl)-2-(4-chloro-2-cyclopentylmethoxy-phenyl)-5,6-difluoro-1H-benzoimidazole] | 1200 nM
12 | O=C(O)Cc1ccc(Cn2c(-c3ccc(Cl)cc3OCC3CCCC3)nc3cc(F)c(F)cc32)cc1 [Example 63, {4-[2-(4-Chloro-2-cyclopentylmethoxy-phenyl)-5,6-difluoro-benzoimidazol-1-ylmethyl]-phenyl}-acetic acid] | 700 nM
13 | FC1(F)CCC(Cn2c(-c3ccccc3CCc3ccc(-c4nnn[nH]4)cc3)nc3ccccc32)CC1 [Example 81, 1-(4,4-Difluoro-cyclohexylmethyl)-2-(2-{2-[4-(1H-tetrazol-5-yl)-phenyl]-ethyl}-phenyl)-1H-benzoimidazole] | 40 nM
14 | Fc1cc2nc(-c3ccc(Cl)cc3OCC3CC3)n(CC3CCCCC3)c2cc1F [Example 21, 2-(4-Chloro-2-cyclopropylmethoxy-phenyl)-1-cyclohexylmethyl-5,6-difluoro-1H-benzoimidazole] | 300 nM
15 | COc1cc(Cl)ccc1-c1nc2cc(F)c(F)cc2n1Cc1ccc(-c2nnn[nH]2)cc1F [Example 71, 2-(4-Chloro-2-methoxy-phenyl)-5,6-difluoro-1-[2-fluoro-4-(1H-tetrazol-5-yl)-benzyl]-1H-benzoimidazole] | 1100 nM
16 | O=C(O)C1CCC(Cn2c(-c3ccc(Cl)cc3OCC3CCCC3)nc3cc(F)c(F)cc32)CC1 (centres unmarked) [Example 66, 4-[2-(4-Chloro-2-cyclopentylmethoxy-phenyl)-5,6-difluoro-benzoimidazol-1-ylmethyl]-cyclohexane carboxylic acid] | 1800 nM
17 | O=C(O)c1ccc(Cn2c(-c3ccc(Cl)cc3OCC3CCCC3)nc3cc(F)c(F)cc32)cc1 [Example 62, 4-[2-(4-Chloro-2-cyclopentylmethoxy-phenyl)-5,6-difluoro-benzoimidazol-1-ylmethyl]-benzoic acid] | 400 nM
18 | CCCOc1cc(Cl)ccc1-c1nc2cc(F)c(F)cc2n1Cc1ccc(-c2nnn[nH]2)cc1F [Example 91, 2-(4-Chloro-2-propoxy-phenyl)-5,6-difluoro-1-[2-fluoro-4-(1H-tetrazol-5-yl)-benzyl]-1H-benzoimidazole] | 50 nM
19 | Fc1cc2nc(-c3cccnc3OCC3CCCC3)n(Cc3ccccc3)c2cc1F [Example 7, 1-Benzyl-2-(2-cyclopentylmethoxy-pyridin-3-yl)-5,6-difluoro-1H-benzoimidazole] | 3800 nM

Other lines, results leading:

Row | IC50 | SMILES
20 | 12100 nM | O=C(O)COc1ccc(COc2ncccc2-c2nc3cc(F)c(F)cc3n2CC2CCCCC2)cc1 [Example 5, {4-[3-(1-Cyclohexylmethyl-5,6-difluoro-1H-benzoimidazol-2-yl)-pyridin-2-yloxymethyl]-phenoxy}-acetic acid]
21 | 40 nM | Fc1cc2nc(-c3ccc(Cl)cc3OCc3ccc(-c4nnn[nH]4)c(F)c3)n(CC3CCCCC3)c2cc1F [Example 33, 2-{4-Chloro-2-[3-fluoro-4-(1H-tetrazol-5-yl)-benzyloxy]-phenyl}-1-cyclohexylmethyl-5,6-difluoro-1H-benzoimidazole]
22 | 200 nM | Fc1cc2nc(-c3ccccc3COc3ccc(-c4nnn[nH]4)c(F)c3)n(CC3CCCCC3)c2cc1F [Example 41, 1-Cyclohexylmethyl-5,6-difluoro-2-{2-[3-fluoro-4-(1H-tetrazol-5-yl)-phenoxymethyl]-phenyl}-1H-benzoimidazole]
23 | 200 nM | O=C(O)c1ccc(COc2cc(Cl)ccc2-c2nc3cc(F)c(F)cc3n2CC2CCCCC2)cc1 [Example 23, 4-[5-Chloro-2-(1-cyclohexylmethyl-5,6-difluoro-1H-benzoimidazol-2-yl)-phenoxymethyl]-benzoic acid]
24 | 3 nM | O=C(Nc1ccc(-c2nnn[nH]2)cc1F)c1ccccc1-c1nc2cc(F)c(F)cc2n1CC1CCCCC1 [Example 86, 2-(1-Cyclohexylmethyl-5,6-difluoro-1H-benzoimidazol-2-yl)-N-[2-fluoro-4-(1H-tetrazol-5-yl)-phenyl]-benzamide]
25 | 100 nM | O=C(O)COc1ccc(COc2cc(Cl)ccc2-c2nc3cc(F)c(F)cc3n2CC2CCCCC2)cc1 [Example 25, {4-[5-Chloro-2-(1-cyclohexylmethyl-5,6-difluoro-1H-benzoimidazol-2-yl)-phenoxymethyl]-phenoxy}-acetic acid]
26 | 50 nM | Fc1cc2nc(-c3ccc(Cl)cc3OCc3ccc(-c4nnn[nH]4)cc3)n(CC3CCCCC3)c2cc1F [Example 31, 2-{4-Chloro-2-[4-(1H-tetrazol-5-yl)-benzyloxy]-phenyl}-1-cyclohexylmethyl-5,6-difluoro-1H-benzoimidazole]
27 | 700 nM | O=C(O)c1cccc(COc2cc(Cl)ccc2-c2nc3cc(F)c(F)cc3n2CC2CCCCC2)c1 [Example 24, 3-[5-Chloro-2-(1-cyclohexylmethyl-5,6-difluoro-1H-benzoimidazol-2-yl)-phenoxymethyl]-benzoic acid]
28 | 0.2 nM | O=C(Nc1cc(Cl)ccc1-c1nc2cc(F)c(F)cc2n1CC1CCCCC1)c1ccc(-c2nnn[nH]2)cc1F [Example 84, N-[5-Chloro-2-(1-cyclohexylmethyl-5,6-difluoro-1H-benzoimidazol-2-yl)-phenyl]-2-fluoro-4-(1H-tetrazol-5-yl)-benzamide]
29 | 900 nM | Fc1cc2nc(-c3ccc(Cl)cc3OCc3ccc(-c4nnn[nH]4)cc3F)n(CC3CCOCC3)c2cc1F [Example 47, 2-{4-Chloro-2-[2-fluoro-4-(1H-tetrazol-5-yl)-benzyloxy]-phenyl}-5,6-difluoro-1-(tetrahydro-pyran-4-ylmethyl)-1H-benzoimidazole]
